Laboratory results taken from the RepoRT retention time repository.
Counter-ions that a name gives are not always drawn.

experiment: HILIC, Merck SeQuant ZIC-HILIC, 25 °C, 0.25 mL/min; A: water + 16 mM ammonium formate; B: acetonitrile + 0.1% formic acid, pH 3; gradient (min/%B) 0/97 2/97 10/70 15/10 17/10 18/97 25/97; settings: stereoisomer not certain

Nc1ccc(C(=O)O)cn1 [6-Aminopyridine-3-carboxylic acid] and O=C(O)c1ccc(=O)[nH]c1 [6-HYDROXYNICOTINATE] are within 1.5-fold of each other in LC retention time: 8.01 min for the first, 6.01 min for the second.

First: O=C(O)C(=O)Cc1c[nH]c2ccccc12 [INDOLE-3-PYRUVATE]
Second: NC(Cc1c[nH]c2ccccc12)C(=O)O (stereo not given) [TRYPTOPHAN]
The LC retention time of the first is 6.1-fold lower: 1.88 min for the first, 11.4 min for the second.

NC1(C(=O)O)CCCCC1 [1-Aminocyclohexanecarboxylic acid] and CC(CN)C(=O)O (stereo not given) [AMINOISOBUTANOATE] are within 1.5-fold of each other in LC retention time: 11.7 min for the first, 13.4 min for the second.

O=C(O)/C=C/c1c[nH]c2ccccc12 [trans-3-indoleacrylic acid] and OCCc1c[nH]c2ccccc12 [INDOLE-3-ETHANOL] are within 1.5-fold of each other in LC retention time: 2.04 min for the first, 1.82 min for the second.

O=C(O)C(O)COP(=O)(O)O (stereo not given) [3-PHOSPHOGLYCERATE] and O=C(O)CP(=O)(O)O [PHOSPHONOACETATE] are within 1.5-fold of each other in LC retention time: 18.1 min for the first, 14.3 min for the second.

Compared with N[C@@H](Cc1ccc(O)c([N+](=O)[O-])c1)C(=O)O [3-NITRO-L-TYROSINE], COc1cc(CC(=O)O)ccc1O [HOMOVANILLATE] is 5.4-fold lower in LC retention time: 11.1 min for the first, 2.04 min for the second.

OCC(O)c1ccc(O)c(O)c1 (stereo not given) [3-4-DIHYDROXYPHENYLGLYCOL] and O=C(O)C(O)c1ccc(O)c(O)c1 (stereo not given) [3-4 DIHYDROXYMANDELATE] are within 1.5-fold of each other in LC retention time: 8.79 min for the first, 10.3 min for the second.

Nc1ncnc2c1ncn2C1OC(CO)C(OP(=O)(O)O)C1O (stereo not given) [Adenosine 3'-monophosphate free acid] and Nc1ncnc2c1ncn2C1OC(COP(=O)(O)O)C(O)C1O (stereo not given) [ADENOSINE-MONOPHOSPHATE] are within 1.5-fold of each other in LC retention time: 13.2 min for the first, 13.6 min for the second.

CCC(NC(=O)CCC(N)C(=O)O)C(=O)NCC(=O)O (stereo not given) [OPHTHALMATE] and NC(CCCC(=O)O)C(=O)O (stereo not given) [AMINOADIPATE] are within 1.5-fold of each other in LC retention time: 14.1 min for the first, 13.8 min for the second.

Nc1ncnc2c1ncn2C1OC(COP(=O)(O)OP(=O)(O)OC2OC(CO)C(O)C(O)C2O)C(O)C1O (stereo not given) [ADP-GLUCOSE] and Nc1ncnc2c1ncn2C1OC(COP(=O)(O)OP(=O)(O)OCC2OC(O)C(O)C2O)C(O)C1O (stereo not given) [ADENOSINE DIPHOSPHATE RIBOSE] are within 1.5-fold of each other in LC retention time: 14.7 min for the first, 14.6 min for the second.

First: CCCCCCCCC=CCCCCCCCC(=O)OCC(O)COP(=O)(O)O (stereo not given) [18-1_LysoPA]
Second: CCCCCCCCC=CCCCCCCCC(=O)OCC(CO)OC(=O)CCCCCCCC=CCCCCCCCC (stereo not given) [1-2-dioleoyl-sn-glycerol]
The LC retention time of the first is 6.2-fold higher: 9.21 min for the first, 1.49 min for the second.

O=C(O)CCCCCCCC(=O)O [AZELATE] and O=C(O)CCCC(=O)O [GLUTARATE] are within 1.5-fold of each other in LC retention time: 1.84 min for the first, 2.13 min for the second.

CCCC=O [BUTANAL] and CCCCC(O)C(=O)O (stereo not given) [2-hydroxycaproic acid] are within 1.5-fold of each other in LC retention time: 1.71 min for the first, 1.87 min for the second.

Going from NC1CCSC1=O (stereo not given) [HOMOCYSTEINE THIOLACTONE] to NC(=O)CCCCC1CCSS1 (stereo not given) [LIPOAMIDE], the LC retention time falls from 11.8 min to 1.79 min (6.6-fold).

CC(CCC(=O)O)C1CCC2C3CCC4CC(O)CCC4(C)C3CC(O)C12C (stereo not given) [deoxycholic acid] and CC(CCC(=O)O)C1CCC2C3C(O)CC4CC(O)CCC4(C)C3CC(O)C12C (stereo not given) [CHOLATE] are within 1.5-fold of each other in LC retention time: 1.98 min for the first, 2.18 min for the second.

CN=C(N)N [METHYLGUANIDINE] and C[n+]1cccc(C(N)=O)c1 [1-METHYLNICOTINAMIDE] are within 1.5-fold of each other in LC retention time: 12 min for the first, 12.8 min for the second.

Compared with Cc1ccccc1C(=O)NCC(=O)O [2-Methylhippuric acid (ortho-Methylhippuric acid)], Nc1ccc(C(=O)NCC(=O)O)cc1 [Aminohippuric acid] is 3-fold higher in LC retention time: 1.97 min for the first, 5.96 min for the second.

First: NC(=O)C=CC(=O)O [MALEAMATE]
Second: O=C(O)C(=O)O [OXALATE]
The LC retention time of the first is 6.9-fold lower: 2.53 min for the first, 17.5 min for the second.

Compared with O=c1cc[nH]c(=O)[nH]1 [URACIL], O=c1[nH]c(=O)c2[nH]cnc2[nH]1 [XANTHINE] is 4-fold higher in LC retention time: 2.24 min for the first, 8.96 min for the second.

NCCCCC(=O)O [5-AMINOPENTANOATE] and NCCCC[C@H](N)C(=O)O [L-Lysine] are within 1.5-fold of each other in LC retention time: 12.6 min for the first, 16.1 min for the second.

Compared with O=C(O)Cc1cccc(O)c1 [3-HYDROXYPHENYLACETATE], N[C@H](C(=O)O)c1ccc(O)cc1 [4-HYDROXY-L-PHENYLGLYCINE] is 6.2-fold higher in LC retention time: 2.15 min for the first, 13.3 min for the second.

C[N+](C)(C)CCOP(=O)(O)O [PHOSPHORYLCHOLINE] and NCCOP(=O)(O)O [ETHANOLAMINE PHOSPHATE] are within 1.5-fold of each other in LC retention time: 15.6 min for the first, 14.9 min for the second.

Nc1nc2c(ncn2C2OC(COP(=O)(O)OP(=O)(O)OC3OC(CO)C(O)C(O)C3O)C(O)C2O)c(=O)[nH]1 (stereo not given) [GUANOSINE DIPHOSPHATE MANNOSE] and Nc1ncnc2c1ncn2C1OC(COP(=O)(O)OP(=O)(O)OP(=O)(O)O)C(O)C1O (stereo not given) [ADENOSINE TRIPHOSPHATE] are within 1.5-fold of each other in LC retention time: 15.2 min for the first, 15.5 min for the second.

CC12CCC(=O)C=C1CCC1C2C(O)CC2(C)C1CCC2(O)C(=O)CO (stereo not given) [CORTISOL] and CC12CCC(=O)C=C1CCC1C2CCC2(C)C1CCC2(O)C(=O)CO (stereo not given) [CORTEXOLONE] are within 1.5-fold of each other in LC retention time: 1.89 min for the first, 1.71 min for the second.

First: NC(CCSCC(N)C(=O)O)C(=O)O (stereo not given) [CYSTATHIONINE]
Second: CC(CCC(=O)O)CC(=O)O (stereo not given) [3-Methyladipic acid]
The LC retention time of the first is 7.2-fold higher: 15.4 min for the first, 2.13 min for the second.

Going from Cn1c(=O)c2[nH]c(=O)[nH]c2n(C)c1=O [1-3-Dimethyluric acid] to O=c1ccn(C2OC(COP(=O)(O)O)C(O)C2O)c(=O)[nH]1 (stereo not given) [URIDINE MONOPHOSPHATE], the LC retention time rises from 2.19 min to 13.9 min (6.3-fold).

CC(C)C(=O)O [ISOBUTYRATE] and CC(O)C(=O)O (stereo not given) [LACTATE] are within 1.5-fold of each other in LC retention time: 2.11 min for the first, 2.75 min for the second.

Compared with O=C(O)C(=O)CS [MERCAPTOPYRUVATE], O=C(O)CC(=O)O [MALONATE] is 2.2-fold lower in LC retention time: 13.8 min for the first, 6.35 min for the second.

First: CN1C(=O)CCC1c1cccnc1 (stereo not given) [Cotinine]
Second: CN1C2CC(OC(=O)C(CO)c3ccccc3)CC1C1OC12 (single isomer, unassigned; (-)) [(-)-Scopolamine hydrochloride]
The LC retention time of the first is 4.5-fold lower: 2.21 min for the first, 9.99 min for the second.

CC(CCC(=O)O)C1CCC2C3CCC4CC(=O)CCC4(C)C3CCC12C (stereo not given) [5b-cholanic acid-3-ONE] and CC(=O)C1(O)CCC2C3CC=C4CC(O)CCC4(C)C3CCC21C (stereo not given) [17a-Hydroxypregnenolone_H2] are within 1.5-fold of each other in LC retention time: 1.63 min for the first, 2.17 min for the second.

First: O=CNCC(=O)O [N-FORMYLGLYCINE]
Second: NCC(=O)NCC(=O)O [Gly-Gly]
The LC retention time of the first is 2.8-fold lower: 5.34 min for the first, 14.9 min for the second.

O=C(OC1Cc2c(O)cc(O)cc2OC1c1cc(O)c(O)c(O)c1)c1cc(O)c(O)c(O)c1 (single isomer, unassigned; (-)) [(-)-Epigallocatechin gallate] and O=c1c(OC2OC(CO)C(O)C(O)C2O)c(-c2ccc(O)c(O)c2)oc2cc(O)cc(O)c12 [Quercetin-3-beta-D-glucoside] are within 1.5-fold of each other in LC retention time: 12.4 min for the first, 9.37 min for the second.

First: CC12CCC(=O)C=C1CCC1C2C(=O)CC2(C)C1CCC2(O)C(=O)CO (stereo not given) [CORTISONE]
Second: O=c1[nH]cnc2c1ncn2C1OC(CO)C(O)C1O (stereo not given) [INOSINE]
The LC retention time of the first is 5.7-fold lower: 1.8 min for the first, 10.3 min for the second.

CC(C)=CC(=O)SCCNC(=O)CCNC(=O)C(O)C(C)(C)COP(=O)(O)OP(=O)(O)OCC1OC(n2cnc3c(N)ncnc32)C(O)C1OP(=O)(O)O (stereo not given) [3-METHYLCROTONYL-COA] and CC(C)(COP(=O)(O)OP(=O)(O)OCC1OC(n2cnc3c(N)ncnc32)C(O)C1OP(=O)(O)O)C(O)C(=O)NCCC(=O)NCCS (stereo not given) [COENZYME A] are within 1.5-fold of each other in LC retention time: 13.4 min for the first, 14.3 min for the second.

CCCCCCCCCCCCCCCC(=O)OCC(COP(=O)(O)OCCN)OC(=O)CCCCCCCCCCCCCCC (stereo not given) [DIPALMITOYL-PHOSPHOETHANOLAMINE] and CCCCCCCCCC(=O)OCC(COP(=O)([O-])OCC[N+](C)(C)C)OC(=O)CCCCCCCCC (stereo not given) [DIDECANOYL-GLYCEROPHOSPHOCHOLINE] are within 1.5-fold of each other in LC retention time: 9.35 min for the first, 10.6 min for the second.

C=C(C)C1CC=C(C)C(=O)C1 [(R)-(-)-Carvone] and CC(C)=CCNc1ncnc2nc[nH]c12 [N6-(DELTA2-ISOPENTENYL)-ADENINE] are within 1.5-fold of each other in LC retention time: 1.55 min for the first, 2.13 min for the second.

Nc1ncnc2c1ncn2C1OC(CO)C2OP(=O)(O)OC21 (stereo not given) [ADENOSINE 2'-3'-CYCLIC PHOSPHATE] and Nc1ccn(C2OC(CO)C3OP(=O)(O)OC32)c(=O)n1 (stereo not given) [CYTIDINE 2'-3'-CYCLIC PHOSPHATE] are within 1.5-fold of each other in LC retention time: 11.4 min for the first, 13.6 min for the second.

Nc1ncnc2c1ncn2C1CC(O)C(COP(=O)(O)OP(=O)(O)OP(=O)(O)O)O1 (stereo not given) [DEOXYADENOSINE TRIPHOSPHATE] and Nc1nc2c(ncn2C2CC(O)C(COP(=O)(O)OP(=O)(O)OP(=O)(O)O)O2)c(=O)[nH]1 (stereo not given) [DGTP] are the same in LC retention time: 15.7 min for the first, 15.7 min for the second.

COc1cc(CCN)ccc1O [3-METHOXYTYRAMINE] and NCCc1ccc(O)c(O)c1 [DOPAMINE] are within 1.5-fold of each other in LC retention time: 11 min for the first, 12.5 min for the second.

Compared with O=C(O)c1ccc2ccccc2c1[O-] [1-HYDROXY-2-NAPHTHOATE], NC(Cc1cc(I)c(Oc2ccc(O)cc2)c(I)c1)C(=O)O [3-5-DIIODO-L-THYRONINE] is 5.3-fold higher in LC retention time: 1.77 min for the first, 9.3 min for the second.

Going from CC=CC=CC(=O)O [SORBATE] to CCC(C)C(N)C(=O)O (stereo not given) [ISOLEUCINE], the LC retention time rises from 1.8 min to 11.6 min (6.4-fold).

O=P(O)(O)OCC1OC(OP(=O)(O)OP(=O)(O)O)C(O)C1O (stereo not given) [PHOSPHORIBOSYL PYROPHOSPHATE] and O=c1ccn(C2OC(COP(=O)(O)OP(=O)(O)O)C(O)C2O)c(=O)[nH]1 (stereo not given) [URIDINE 5'-DIPHOSPHATE] are within 1.5-fold of each other in LC retention time: 15.7 min for the first, 15 min for the second.

Compared with CC(=O)NC(CO)C(=O)O (stereo not given) [N-ACETYLSERINE], CCC(C)C(=O)C(=O)O (stereo not given) [3-METHYL-2-OXOVALERATE] is 4.8-fold lower in LC retention time: 8.33 min for the first, 1.73 min for the second.

NC(CS)C(=O)NCC(=O)O (stereo not given) [CYS-GLY_2M] and NCC(O)c1ccc(O)cc1 (stereo not given) [P-OCTOPAMINE] are within 1.5-fold of each other in LC retention time: 16.3 min for the first, 12.4 min for the second.

O=C1OC(CO)C(O)C(O)C1O (stereo not given) [GLUCONOLACTONE] and CCCCCCCCCCCCCCCC(O)C(N)CO (stereo not given) [SPHINGANINE] are within 1.5-fold of each other in LC retention time: 14.5 min for the first, 9.91 min for the second.
